Results taken from the supplement of paper PMC10307832.

Experiments:
Experiment in all cases: relative viability (nuclei count vs DMSO), 5 days (fraction); higher = more cells survive
Decitabine + Navitoclax = compound: Nc1ncn([C@H]2C[C@H](O)[C@@H](CO)O2)c(=O)n1 [Decitabine] + CC1(C)CCC(c2ccc(Cl)cc2)=C(CN2CCN(c3ccc(C(=O)NS(=O)(=O)c4ccc(N[C@H](CCN5CCOCC5)CSc5ccccc5)c(S(=O)(=O)C(F)(F)F)c4)cc3)CC2)C1 [Navitoclax] (partner 0.5 µM)
Outline: (§1)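 Dosing by pin tool came one day after lung cancer cell lines were seeded in 1536-well plates, using either one drug or a fixed anchor-drug dose plus five library-drug doses (not always all listed) in √10 steps. After 5 days, nuclei were counted on 4× images. Relative viability is treated-well nuclei count divided by vehicle-well nuclei count, and values are medians of duplicate plates.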

Decitabine + OSI-027 = compound: Nc1ncn([C@H]2C[C@H](O)[C@@H](CO)O2)c(=O)n1 [Decitabine] + COc1cccc2cc(-c3nc([C@H]4CC[C@H](C(=O)O)CC4)n4ncnc(N)c34)[nH]c12 [OSI-027] (partner 0.5 µM)
Outline: as §1

Decitabine + Pictilisib = compound: Nc1ncn([C@H]2C[C@H](O)[C@@H](CO)O2)c(=O)n1 [Decitabine] + CS(=O)(=O)N1CCN(Cc2cc3nc(-c4cccc5[nH]ncc45)nc(N4CCOCC4)c3s2)CC1 [Pictilisib] (partner 1 µM)
Outline: as §1

Cell Line | relative viability (Decitabine + Navitoclax; first compound 0.04 µM) | relative viability (Decitabine + Navitoclax; first compound 0.1265 µM) | relative viability (Decitabine + Navitoclax; first compound 0.4 µM) | relative viability (Decitabine + Navitoclax; first compound 1.265 µM) | relative viability (Decitabine + Navitoclax; first compound 4 µM) | relative viability (Decitabine + OSI-027; first compound 0.04 µM) | relative viability (Decitabine + OSI-027; first compound 0.1265 µM) | relative viability (Decitabine + OSI-027; first compound 0.4 µM) | relative viability (Decitabine + OSI-027; first compound 1.265 µM) | relative viability (Decitabine + OSI-027; first compound 4 µM) | relative viability (Decitabine + Pictilisib; first compound 0.04 µM) | relative viability (Decitabine + Pictilisib; first compound 0.1265 µM) | relative viability (Decitabine + Pictilisib; first compound 0.4 µM) | relative viability (Decitabine + Pictilisib; first compound 1.265 µM) | relative viability (Decitabine + Pictilisib; first compound 4 µM)
LCLC-97TM1 | 0.16 | 0.194 | 0.172 | 0.103 | 0.684 | 0.244 | 0.295 | 0.188 | 0.229 | 0.11 | 0.145 | 0.166 | 0.0979 | 0.105 | 0.117
LCLC-103H |  |  |  |  |  | 0.406 | 0.472 | 0.462 | 0.376 | 0.376 | 0.638 | 0.669 | 0.526 | 0.655 | 0.647
LK-2 | 0.739 | 0.881 | 0.664 | 0.358 | 0.332 | 0.188 | 0.2 | 0.191 | 0.252 | 0.212 |  | 0.607 | 0.505 | 0.401 | 0.396
LOU-NH91 | 0.372 | 0.645 | 0.503 | 0.458 | 0.525 | 0.497 | 0.738 | 0.621 | 0.629 | 0.672 | 0.518 | 0.478 | 0.517 | 0.518 | 0.495
LU99A | 0.745 | 0.711 | 0.771 | 0.53 | 0.502 | 0.307 | 0.291 | 0.319 | 0.255 | 0.293 | 0.369 | 0.325 | 0.355 | 0.308 | 0.311
LXF-289 | 0.65 | 0.53 | 0.44 | 0.308 | 0.29 | 0.646 | 0.617 | 0.361 | 0.31 | 0.23 | 0.75 | 0.808 | 0.471 | 0.4 | 0.317
NCI-H23 | 0.558 | 0.45 | 0.305 | 0.21 | 0.224 | 0.48 | 0.498 | 0.255 | 0.231 | 0.245 | 0.528 | 0.59 | 0.281 | 0.266 | 0.196
NCI-H322M | 0.841 | 0.892 | 0.777 | 0.505 | 0.509 | 0.507 | 0.496 | 0.432 | 0.473 | 0.441 | 0.408 | 0.537 | 0.53 | 0.397 | 0.424
NCI-H358 |  |  |  |  |  | 0.372 | 0.254 | 0.2 | 0.113 | 0.12 | 0.315 | 0.335 | 0.352 | 0.313 | 0.25
NCI-H441 | 0.258 | 0.293 | 0.274 | 0.259 | 0.223 | 0.415 | 0.441 | 0.246 | 0.261 | 0.255 | 0.28 | 0.306 | 0.286 | 0.205 | 0.179
NCI-H460 | 0.974 | 1.03 | 0.612 | 0.292 | 0.198 | 0.603 | 0.848 | 0.598 | 0.308 | 0.215 | 0.389 | 0.549 | 0.524 | 0.373 | 0.334
NCI-H520 | 0.941 | 0.804 | 0.615 | 0.819 | 0.467 | 0.309 | 0.242 | 0.234 | 0.215 | 0.21 | 0.315 | 0.271 | 0.241 | 0.222 | 0.198
NCI-H522 |  |  |  |  |  | 0.695 | 0.827 | 0.561 | 0.609 | 0.582 |  |  |  |  | 
NCI-H596 | 0.912 | 0.868 | 0.638 | 0.688 | 0.587 | 0.606 | 0.793 |  | 0.581 | 0.477 | 0.38 | 0.416 | 0.304 | 0.358 | 0.633
NCI-H647 | 0.796 | 0.836 | 0.355 | 0.219 | 0.178 | 0.648 | 0.549 | 0.403 | 0.152 | 0.201 | 0.504 | 0.566 | 0.42 | 0.191 | 0.214
NCI-H650 |  |  |  |  |  | 0.462 | 0.454 | 0.306 | 0.291 | 0.276 | 0.81 | 0.779 | 0.574 | 0.443 | 0.33
NCI-H661 |  |  |  |  |  | 0.55 | 0.628 | 0.474 | 0.374 | 0.346 | 0.346 | 0.344 | 0.372 | 0.288 | 0.242
NCI-H727 | 0.302 | 0.361 | 0.343 | 0.272 | 0.292 | 0.485 | 0.65 | 0.477 | 0.57 | 0.426 | 0.272 | 0.353 | 0.316 | 0.418 | 0.257
NCI-H838 | 0.734 | 0.512 | 0.321 | 0.366 | 0.309 | 0.359 | 0.324 | 0.279 | 0.273 | 0.29 | 0.415 | 0.357 | 0.308 | 0.24 | 0.226
NCI-H1299 | 1.04 | 1.03 | 1.02 | 0.898 | 0.848 |  |  |  |  |  | 0.836 | 0.881 | 0.829 | 0.619 | 0.505
NCI-H1355 | 0.695 | 0.583 | 0.471 | 0.248 | 0.913 | 0.352 | 0.398 | 0.289 | 0.288 | 0.267 | 0.529 | 0.44 | 0.293 | 0.254 | 0.23
NCI-H1563 |  |  |  |  |  | 0.791 | 0.811 | 0.767 | 0.774 | 0.76 | 0.682 | 0.63 | 0.779 | 0.693 | 0.635
NCI-H1623 |  |  |  |  |  | 0.359 | 0.438 | 0.427 | 0.4 | 0.363 |  |  |  |  | 
NCI-H1648 |  |  |  |  |  | 0.266 | 0.236 | 0.264 | 0.267 | 0.26 |  |  |  |  | 
NCI-H1703 | 0.845 | 0.642 | 0.255 | 0.189 | 0.253 |  |  |  |  |  | 0.29 | 0.258 | 0.196 | 0.234 | 0.181
NCI-H2342 |  |  |  |  |  | 0.544 | 0.583 | 0.565 | 0.595 | 0.599 |  |  |  |  | 
SW 900 |  |  |  |  |  | 0.321 | 0.349 | 0.191 | 0.183 | 0.175 |  |  |  |  | 
